Assay results from patent publication US20140050778A1, “NUCLEIC ACID BINDING COMPOUNDS, METHODS OF MAKING, AND USE THEREOF” (UNIVERSITY OF ROCHESTER, priority 2010, published 2014).

Legend:
(CUG)10 RNA = assay: Fluorescence titration (benzo[g]quinoline quenching); assay type: binding; conditions: (CUG)10, 1 μM compound in HBS-N, read-out: Apparent KD
Procedure: The benzo[g]quinoline moiety is fluorescent, with excitation and emission maxima at 362 nm and 439 nm respectively in methanol. Fluorescence titration binding measurements were performed on a Cary Eclipse fluorescence spectrophotometer using a 10 mm path-length semimicro quartz fluorescence cell with 400 μL sample holding capacity. Absorbance measurements were carried out on a UV-Visible spectrophotometer (Shimadzu, UV-1601PC) using a 1 mL (1 cm path-length) quartz cell. Spectroscopic grade anhydrous methanol used in the measurement of relative quantum yield of the 2-ethyl benzo[g]quinoline carboxylic acid was purchased from Alfa Aesar and was used without further purification. For these measurements, known procedures were used (Lee and Grissom, “Design, Synthesis, and Characterization of Fluorescent Cobalamin Analogues with High Quantum Efficiencies,” Org. Lett. 11:2499-2502 (2009); Joseph R. Lakowicz, Principles of Fluorescence Spectroscopy, 2nd edition (Kluwer Academic/Plenum Publishers, 1999), which are hereby incorporated by reference in their entirety). Briefly, RNA (10 μM stock) in HBS-N buffer was titrated into a solution of 1 μM compound in HBS-N. After each addition of RNA, ten minutes were allowed for equilibration before recording the change in fluorescence at 468.5 nm. Fluorescence units (“FU”) were then corrected for dilution and the FU after each addition was subtracted from the FU at zero RNA concentration to give AFU. Following saturation, AFU was plotted against RNA concentration using Origin 7 (OriginLab, Inc.), and fitted to a 1:1 Langmuir binding model to obtain apparent dissociation constants (Kn). […]
Selected equilibrium affinities for (CUG)10 were confirmed by fluorescence titration. The quantum yield of the ethylbenzo[g]quinoline carboxylic acid (compound 2), relative to quinine sulfate, was determined to be 0.64 (FIGS. 5A-F). […] Apparent KD values measured in this manner are consistent with those obtained by SPR (Table 6); that they are not identical to SPR-measured values likely results from the differing formats of the two methods. […]

human fibroblasts = assay: Cell permeability by fluorescence microscopy; assay type: cell-based; conditions: intrinsic fluorescence, 4 and 5 incubated as a mixture
Procedure: For cell permeability studies, human fibroblasts or mouse myoblasts grown to 80% confluence were exposed to compounds for 12 hours in a 96 well tissue culture plate. After removal of the culture media (DMEM, with 10% FBS, 1% pen-strep (GIBCO)) the cells were washed twice with PBS to remove excess compounds. Cells were then imaged while in buffer under a fluorescence microscope (Olympus IX70) in the 96-well plate using a 460 nm emission filter.
SPR and fluorescence titration experiments, performed using the protocol described in Examples 3 and 4 above, except using as the target a highly conserved RNA sequence responsible for regulating the production of the Gag-Pol polyprotein via a −1 ribosomal frameshift, which occurs along a “slippery sequence” in gag-pol mRNA (SEQ ID NO: 7). This “frameshift stimulatory sequence” (or “HIV-1 FSS”) consists of an upper stemloop and a lower stem, separated by a purine bulge in the most common types of HIV (FIG. 19). For the fluorescent titration experiments, the upper stemloop of SEQ ID NO: 7 was employed. Cell uptake and toxicity studies were carried out using human fibroblasts according to Example 5 above.

mouse myoblasts = assay: MTT toxicity assay; assay type: cell-based; conditions: individually
Procedure: For toxicity studies, mouse myoblasts or human fibroblasts were plated in a 96-well tissue culture plate in DMEM (10% fetal bovine serum, 100 units/ml penicillin, […]) and allowed to grow to approximately 80% confluence at 37° C. under CO2. Varying compound concentrations (up to 1 mM) were incubated with cells (48 hours, 37° C.). Media was then removed, and 3-(4,5-dimethylthiazol-2-yl)-2,5-diphenyltetrazolium bromide (“MTT”) in media was added to each well and incubated at 37° C. for 4 h. After removal of the MTT media, isopropanol (100 pp was added, and absorbance was measured at 600 nm on a Modulus microplate reader (Turner Biosystems).

SMILES | Kd ((CUG)10 RNA) [nM] | cell membrane penetration / localization (human fibroblasts) | toxicity (MTT) (mouse myoblasts)
CCc1nc2cc3ccccc3cc2cc1C(=O)N1CCC[C@H]1C(=O)N[C@@H](C/C=C\C[C@H](NC(=O)[C@@H]1CCCN1C(=O)c1cc2cc3ccccc3cc2nc1CC)C(=O)N[C@@H](CCCCN)C(=O)NCCCN)C(=O)N[C@@H](CCCCN)C(=O)NCCCN [Compound 4] | 66.3 ± 2.1 | Localization is shown, especially in the nucleus of cells | increasing toxicity was observed in mouse myoblasts above 100 μM
CCc1nc2cc3ccccc3cc2cc1C(=O)N1CCC[C@H]1C(=O)N[C@@H](C/C=C/C[C@H](NC(=O)[C@@H]1CCCN1C(=O)c1cc2cc3ccccc3cc2nc1CC)C(=O)N[C@@H](CCCCN)C(=O)NCCCN)C(=O)N[C@@H](CCCCN)C(=O)NCCCN [Compound 5] | 70.4 ± 1.1 | Localization is shown, especially in the nucleus of cells | increasing toxicity was observed in mouse myoblasts above 100 μM
